Measured values published in patent publication US9340577B2, “HLA binding motifs and peptides and their uses” (priority 1992, dated 2016).
Like-named read-outs stand apart in the source and are kept apart here. No end group written: not given here.

Key:
Test in all cases: biochemical
DRB1*1501 = DRB1*1501 (Homo sapiens, UniProt P01903+P01911); assay type: binding
DR7 (DRB1*0701) = DR7 (DRB1*0701) (Homo sapiens, UniProt P01903+P01911, A100R/A102G/A103Q/D57E/D86V/E43K/F76Y/K127E/L162R/M171V/P40G/Q125H/Q99D/R33Q/R42Y/R54Q/S133A/S66F/T210M/V115G/Y107V/Y59L/Y89S); assay type: binding
DR1 (DRB1*0101) = DR1 (DRB1*0101) (Homo sapiens, UniProt P01903+P01911, A100R/D57E/F55L/F60I/F76Y/I96L/L162R/M171V/P40L/Q125E/R42F/V115G/Y59C); assay type: binding
DRB4*0101 = DRB4*0101 (Homo sapiens, UniProt P01903+P13762, G164S); assay type: binding
DRB1*1101 = DRB1*1101 (Homo sapiens, UniProt P01903+P01911, A100R/A169T/A87E/I96F/K41T/L162R/M171V/P40S/Q125H/Q178H/Q39Y/Q99D/R42S/S66Y/T262R/V115G/W38E)
DRB1*0405 = DRB1*0405 (Homo sapiens, UniProt P01903+P01911, A100R/A169T/D86S/F76Y/I96L/K127E/L162R/M171V/N62H/P40V/Q125Y/R42H/S133A/S149N/S66Y/V115G/V209L/W38E); assay type: binding
DRB1*0802 = DRB1*0802 (Homo sapiens, UniProt P01903+P01911, A100R/A103L/A169T/F76Y/H45Y/I96F/K41T/L162R/M171V/P40S/Q125H/Q178H/Q39Y/Q99D/R218S/R42G/S66Y/V115G/W38E); assay type: binding
DR4w4 (DRB1*0401) = DR4w4 (DRB1*0401) (Homo sapiens, UniProt P01903+P01911, A100K/A169T/F76Y/I96L/K127E/L162R/M171V/N62H/P40V/Q125Y/R42H/S133A/S149N/S66Y/V115G/V209L/W38E); assay type: binding
DRB1*0901 = DRB1*0901 (Homo sapiens, UniProt P01903+P01911, A100R/A103E/D57H/D86V/F55Y/F60I/F76Y/I96F/K127E/L162R/M171V/P40D/Q125H/Q99R/R33Q/R42F/S133A/S66N/T210M/V115G/W38K/Y107V/Y59G/Y89S); assay type: binding
DRB1*1302 = DRB1*1302 (Homo sapiens, UniProt P01903+P01911, A100E/A169T/K41T/L162R/M171V/P40S/Q125H/Q178H/Q39Y/Q99D/R42S/S66N/T262R/V115G/W38E/Y61H); assay type: binding
DRB5*0101 = DRB5*0101 (Homo sapiens, UniProt P01903+Q30154)

Chain of DRB1*1302 (P01903 26-254 limits assumed, other chains not shown): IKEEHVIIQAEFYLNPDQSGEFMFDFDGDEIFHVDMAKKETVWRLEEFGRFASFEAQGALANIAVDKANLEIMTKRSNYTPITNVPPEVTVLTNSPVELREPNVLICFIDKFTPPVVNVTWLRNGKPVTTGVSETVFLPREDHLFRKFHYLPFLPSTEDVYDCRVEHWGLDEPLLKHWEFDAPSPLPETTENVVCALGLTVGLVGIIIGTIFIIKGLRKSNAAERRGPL
Chain of DRB1*1101 (P01903 26-254 limits assumed, other chains not shown): as above

| Compound | IC50 (DRB1*1501) | IC50 (DR7 (DRB1*0701)) | IC50 (DR1 (DRB1*0101)) | IC50 (DRB4*0101) | IC50 (DRB1*1101; Binding affinity DRB1 *1101) | IC50 (DRB1*0405) | IC50 (DRB1*0802) | IC50 (DR4w4 (DRB1*0401)) | IC50 (DRB1*0901) | IC50 (DRB1*1302) | IC50 (DRB5*0101; Binding affinity DRB5 *0101) | IC50 (DRB5*0101) | IC50 (DRB1*1101) |
| --- | --- | --- | --- | --- | --- | --- | --- | --- | --- | --- | --- | --- | --- |
| CC[C@H](C)[C@H](NC(=O)[C@H](C)NC(=O)[C@H](CCCCN)NC(=O)[C@H](Cc1c[nH]cn1)NC(=O)[C@H](C)NC(=O)[C@H](CCCCN)NC(=O)[C@H](CO)NC(=O)[C@H](CCCCN)NC(=O)[C@H](CO)NC(=O)[C@@H](NC(=O)[C@H](CC(N)=O)NC(=O)[C@H](Cc1ccc(O)cc1)NC(=O)[C@H](C)N)[C@@H](C)CC)C(=O)N[C@@H](CCC(=O)O)C(=O)N[C@@H](CC(C)C)C(=O)O [Peptide 89.0159] | > 20 µM | > 20 µM | 0.651 µM | > 20 µM | > 20 µM | > 20 µM | > 20 µM | > 20 µM | > 20 µM | > 20 µM | > 20 µM | – | – |
| ALSVSKAKALQAIEL [Peptide 89.0170] | > 20 µM | 3.21 µM | 0.084 µM | > 20 µM | > 20 µM | 8.43 µM | > 20 µM | 0.281 µM | 4.33 µM | 1.63 µM | > 20 µM | – | – |
| CSAIEVQIALESLST [Peptide 90.0018] | > 20 µM | 5.26 µM | – | 0.029 µM | > 20 µM | 3.32 µM | > 20 µM | 0.24 µM | 12 µM | 0.617 µM | > 20 µM | – | – |
| DIAYKYAQLADVNSN [Peptide 89.0108] | > 20 µM | 1.02 µM | 4.73 µM | 0.295 µM | 12.6 µM | 2.2 µM | > 20 µM | 0.088 µM | 10.6 µM | > 20 µM | 0.15 µM | – | – |
| DRGIIILLLIRFRCS [Peptide 89.0062] | 14.4 µM | > 20 µM | > 20 µM | 7.56 µM | 8.28 µM | 7.18 µM | 0.085 µM | > 20 µM | > 20 µM | > 20 µM | > 20 µM | – | – |
| DSEIAYKYAQLADSD [Peptide 89.0051] | 1.09 µM | > 20 µM | – | 1.34 µM | 3.38 µM | 12.2 µM | 0.624 µM | > 20 µM | 5.32 µM | > 20 µM | > 20 µM | – | – |
| ESDMAFQYAQLADCN [Peptide 89.0085] | 7.42 µM | 3.25 µM | 0.011 µM | 0.048 µM | 20 µM | 19.7 µM | 5.92 µM | 0.233 µM | – | 0.224 µM | 7.69 µM | – | – |
| FQVIELQMALETLSK [Peptide 89.0182] | 14 µM | 0.183 µM | 1.01 µM | > 20 µM | 2.11 µM | 0.232 µM | > 20 µM | 0.224 µM | 0.751 µM | > 20 µM | – | – | – |
| GQVIVCPTSISSNQI [Peptide 89.0185] | 3.76 µM | > 20 µM | – | 1.75 µM | 6.53 µM | 7.59 µM | 1.63 µM | 0.091 µM | > 20 µM | 1.33 µM | 2.48 µM | – | – |
| HALFTAQEAKQHRDA [Peptide 89.0001] | > 20 µM | > 20 µM | – | > 20 µM | > 20 µM | 4.75 µM | – | 0.205 µM | > 20 µM | > 20 µM | 7.16 µM | – | – |
| KNCILIHGAPNTGKS [Peptide 89.0055] | 1.4 µM | 7.3 µM | – | 0.577 µM | 19.9 µM | 3.85 µM | > 20 µM | > 20 µM | 17 µM | 8.91 µM | > 20 µM | – | – |
| LIQLKCPPILLTTNI [Peptide 89.0038] | 6.8 µM | 0.99 µM | 0.015 µM | 0.158 µM | > 20 µM | 3.95 µM | – | 3.8 µM | > 20 µM | > 20 µM | > 20 µM | – | – |
| LKEFLKGTPKKNCIL [Peptide 89.0086] | 7.81 µM | 5.43 µM | – | 2.41 µM | – | 14.9 µM | 3.2 µM | 1.62 µM | 11.9 µM | 6.61 µM | 4.66 µM | – | – |
| LKVLIKQHSIYTHLQ [Peptide 89.0142] | > 20 µM | > 20 µM | – | > 20 µM | > 20 µM | > 20 µM | > 20 µM | > 20 µM | > 20 µM | 0.448 µM | > 20 µM | – | – |
| LVQLKCPPLLLTSNT [Peptide 89.0077] | 0.774 µM | 1.09 µM | 0.051 µM | 0.307 µM | 17.6 µM | 3.5 µM | – | 4.03 µM | 11.7 µM | 2 µM | 4.49 µM | – | – |
| QAELETAQALFHAQE [Peptide 89.0022] | > 20 µM | 3.01 µM | – | 0.072 µM | > 20 µM | 0.592 µM | > 20 µM | 0.122 µM | 0.338 µM | 2.78 µM | 1.95 µM | – | – |
| QEQMLIQPPKIRSPA [Peptide 89.0124] | > 20 µM | 7.22 µM | > 20 µM | 1.64 µM | – | 8.05 µM | > 20 µM | 0.991 µM | – | > 20 µM | – | – | – |
| QKCFKKKGITVTVQY [Peptide 90.0026] | > 20 µM | 4.39 µM | – | 1.31 µM | 7.82 µM | 2.91 µM | 1.33 µM | 0.996 µM | 0.639 µM | 0.837 µM | > 20 µM | – | – |
| QQLLQVQTAHADKQT [Peptide 89.0115] | 10.5 µM | > 20 µM | 1.11 µM | 0.932 µM | – | > 20 µM | > 20 µM | 5.5 µM | > 20 µM | > 20 µM | – | 0.086 µM | – |
| RDSVDSAPILTAFNS [Peptide 89.0156] | 4.84 µM | 0.335 µM | 7.45 µM | 1.31 µM | 7.05 µM | > 20 µM | > 20 µM | 0.02 µM | – | 0.025 µM | > 20 µM | – | – |
| RKTIAKALSSILNVP [Peptide 89.0123] | > 20 µM | > 20 µM | > 20 µM | 0.746 µM | – | > 20 µM | > 20 µM | 11.5 µM | > 20 µM | > 20 µM | – | – | > 20 µM |
| SRVIVCPTSIPSDQI [Peptide 90.0027] | > 20 µM | > 20 µM | > 20 µM | > 20 µM | > 20 µM | 6.14 µM | – | 1.91 µM | > 20 µM | 2 µM | > 20 µM | – | – |
| TYGVSFMELVRPFKS [Peptide 89.0095] | 0.592 µM | 7.57 µM | – | 0.389 µM | – | > 20 µM | > 20 µM | > 20 µM | > 20 µM | 0.598 µM | 9.07 µM | – | – |
| VKFLRYQQIEFVSFL [Peptide 89.0052] | 0.535 µM | 4.59 µM | – | 0.002 µM | 1.1 µM | 2.77 µM | 7.05 µM | 1.28 µM | 3.21 µM | 0.024 µM | 11.2 µM | – | – |
| YFKLFLQGTPKHNCL [Peptide 89.0133] | > 20 µM | > 20 µM | > 20 µM | 0.081 µM | – | 6.12 µM | > 20 µM | 0.109 µM | > 20 µM | 0.193 µM | > 20 µM | – | – |
